One may read the melting point as the temperature, or range, at which the solid turns liquid. A word on the IC50: it is the point on the concentration scale where inhibition reaches its midpoint.

The text below walks through data of US20050130221A1, “Synthesis for the preparation of compounds for screening as potential tubulin binding agents” (The Australian National University, priority 2001, published 2005).

The structures appear in SMILES notation. Read-outs that look alike come from different tables or passages of the source. Where only a bound is given, the exact number is not on record here.

For series [1], the system named is Burkitt lymphoma CA46 cells. The series can be described thus: Inhibition of CA46 cell growth. Type of series: cell-based. Conditions: Homo sapiens.
For series [2], the system named is T1, tubulin.
T1 construct: other: tubulin 10 μM; extent of assembly measured; asterisk: rate but not ex; tubulin 1.0 μM; [3H]colchicine; [3H]colchicin
Kind of series: Inhibition of [3H]colchicine binding to tubulin. Conditions: tubulin 1.0 μM, [3H]colchicine 5.0 μM.

For series [3], the system named is T1, tubulin. Kind of series: Inhibition of tubulin polymerization. Conditions: tubulin 10 μM; extent of assembly measured; asterisk: rate but not extent inhibited up to 40 μM. Type of series: biochemical.
Series [4] deals with MCF-7 human breast carcinoma cell line. Kind of series: Inhibition of MCF-7 cell growth. Type of series: cell-based.
In series [5] the test system is tubulin. Conditions: background statement, literature; cited from earlier work.
Setting [6] is: CA46, read-out: Inhibition of CA46 cell growth IC50.

`COc1ccc(-c2oc3cc(OC)ccc3c2Cc2cc(OC)c(OC)c(OC)c2)cc1` [BLF-70-3, 6-Methoxy-2-(4-methoxyphenyl)-3-(3,4,5-trimethoxybenzyl)benzo[b]furan] returned a melting point of 121 to 122 °C.

Turning to `COc1ccc(/C=C\c2cc(OC)c(OC)c(OC)c2)cc1O` [(A), Combretastatin A4, reference compound], the IC50 in series [1] (Burkitt lymphoma CA46 cells, read-out: Inhibition of CA46 cell growth IC50) is 1 nM. Further, the “Inhibition of colchicine binding (% inhibition), 5 μM inhibitor” value (from here on “Inhibition … (% inhibition), 5 μM inhibitor”) with tubulin [2] came to 91%.

Compound `COc1ccc2c(C(=O)c3cc(OC)c(OC)c(OC)c3)c(-c3ccc(OC)c(O)c3)sc2c1` [BLF-86-1, 2-(3′-Hydroxy-4′-methoxyphenyl)6-methoxy-3-(3″,4″,5″-trimethoxybenzoyl)benzo[b]thiophene] registered a melting point of 123 to 125 °C.

Regarding `COc1ccc(-c2oc3cc(OC)ccc3c2C(O)c2cc(OC)c(OC)c(OC)c2)cc1` (centres unmarked) [BLF-68-3], the melting point fell in the range of 53 to 54 °C.

The compound `COc1ccc(C(=O)c2cc3cc(O)c(OC)cc3s2)cc1O` [KH-2-2, 5-Hydroxy-2-(3′-hydroxy-4′-methoxybenzoyl)-6-methoxybenzo[b]thiophene] gave an IC50 in the series on tubulin [3] of 2.4 ± 0.4 µM.

As to `COc1ccc(-c2sccc2C(=O)c2cc(OC)c(OC)c(OC)c2)cc1O` [BLF-89-3], the melting point is 151 to 152 °C. For the same compound, the IC50 in series [4] (MCF7, MCF-7 human breast carcinoma cell line, read-out: Inhibition of cell growth IC50 (MCF-7)) amounted to 300 nM. This compound also registered a half-inhibitory concentration (IC50) with tubulin [3] of 1 ± 0.1 µM. Also, in the series on tubulin [2], the “Inhibition … (% inhibition), 5 μM inhibitor” value turned out to be 67%.

Turning to `COc1ccc2c(-c3cc(OC)c(OC)c(OC)c3)c(-c3ccc(OC)c(O)c3)[nH]c2c1` [BLF-61-3, 6-Methoxy-2-(3-hydroxy-4-methoxyphenyl)-3-(3,4,5-trimethoxyphenyl)indole], the melting point is 98 to 99 °C.

For `COc1ccc2[nH]c(-c3ccc4c(c3)OCO4)c(-c3cc(OC)c(OC)c(OC)c3)c2c1` [(C)], in the series with tubulin [5], the tubulin binding activity entry was “moderate”.

As to `COc1ccc2c(C(O)c3ccc(OC)c(O)c3)c(-c3cc(OC)c(OC)c(OC)c3)sc2c1` (centres unmarked) [BLF-34-3], the half-maximal inhibitory concentration (IC50) in series [1] (setting [6]) was greater than 1000 nM. In addition, the 50% inhibitory concentration (IC50) in the series with tubulin [3] was found to be 6.1 ± 0.8 µM. In the series with tubulin [2], the “Inhibition … (% inhibition), 5 μM inhibitor” value turned out to be 5% and the “Inhibition of colchicine binding (% inhibition), 50 μM inhibitor” value (from here on “Inhibition … (% inhibition), 50 μM inhibitor”) came to 73%.

As to `COc1ccc(-c2sc3cc4c(cc3c2C(=O)c2cc(OC)c(OC)c(OC)c2)OCO4)cc1O` [BLF-53-3, 2-(3′-Hydroxy-4′-methoxyphenyl)-5,6-methylendioxy-3-(3″,4″,5″-trimethoxybenzoyl)benzo[b]thiophene], the melting point is 156 to 157 °C. Further, in series [1] (setting [6]), the IC50 is greater than 1000 nM. Also, the concentration for half-maximal inhibition (IC50) in the series with tubulin [3] is greater than 40 µM. In the series with tubulin [2], the “Inhibition … (% inhibition), 5 μM inhibitor” value turned out to be 2% and the “Inhibition … (% inhibition), 50 μM inhibitor” value was found to be 31%.

Regarding `COc1ccc2c(C(O)c3cc(OC)c(OC)c(OC)c3)c(-c3ccc(OC)c(O)c3)oc2c1` (stereo not drawn) [BLF-69-3, 6-Methoxy-2-(3-hydroxy-4-methoxyphenyl)-3-[α-hydroxy-α-(3,4,5-trimethoxyphenyl)methyl]benzo[b]furan], the melting point was in the range of 68 to 69 °C.

Consider `COc1ccc(-c2oc3cc(O)c(OC)cc3c2-c2cc(OC)c(OC)c(OC)c2)cc1O` [(D)], for which, in the series with tubulin [5], the tubulin binding activity entry is “did not exhibit tubulin binding activity”.

Consider `COc1ccc(C2=C(c3cc(OC)c(OC)c(OC)c3)CCS2)cc1OC(C)=O` [GPF-60-1, 2-(3′-acetoxy-4′-methoxyphenyl)-4,5-dihydro-3-(3″,4″,5″-trimethoxyphenyl)thiophene], for which the IC50 in series [4] (Homo sapiens, MCF7, read-out: Inhibition of cell growth IC50 (MCF-7)) is 390 nM; in the series on tubulin [3], 3.6 ± 1 µM. Besides, in the series on tubulin [2], the “Inhibition … (% inhibition), 5 μM inhibitor” value was 64%. For the same compound, the “Inhibition … (% inhibition), 50 μM inhibitor” value in the series on tubulin [2] amounted to 88%.

Consider `COc1ccc2c(C(=O)c3cc(OC)c(OC)c(OC)c3)c(-c3ccc(OC)c(O)c3)oc2c1` [BLF-62-3, 6-Methoxy-2-(3-hydroxy-4-methoxyphenyl)-3-(3,4,5-trimethoxybenzoyl)benzo bifuran], for which the melting point lay within 68 to 69 °C.

Take `COc1ccc(C2=C(C(=O)c3cc(OC)c(OC)c(OC)c3)C(=O)c3cc(OC)c(OC)c(OC)c32)cc1O` [DK-12a-1, 3-(3′-Hydroxy-4′-methoxyphenyl)-4,5,6-trimethoxy-2-(3′,4″,5″-trimethoxybenzoyl)indenone]: the half-inhibitory concentration (IC50) in the series on tubulin [3] was in the range of 10 to 40 µM.
